Source: ChEMBL document CHEMBL1201862, “PubChem BioAssay data set” (2004)
Calls of active or inactive are those of the source.

Tests used:
[1] = molecular target: T1, Runt-related transcription factor 1/Core-binding factor subunit beta (Homo sapiens, UniProt Q01196+Q13951); test: inhibitors of RUNX1 Runt–CBFb-SMMHC binding, primary screen, biochemical, FRET, Cerulean-Runt, Venus-CBFb-SMMHC, uHTS (AID 1434); type: protein assay;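 also: partner is the CBFb-SMMHC leukemia fusion protein rather than wild-type CBFb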
T1 sequence (Q01196 whole entry, the tested form may be a part): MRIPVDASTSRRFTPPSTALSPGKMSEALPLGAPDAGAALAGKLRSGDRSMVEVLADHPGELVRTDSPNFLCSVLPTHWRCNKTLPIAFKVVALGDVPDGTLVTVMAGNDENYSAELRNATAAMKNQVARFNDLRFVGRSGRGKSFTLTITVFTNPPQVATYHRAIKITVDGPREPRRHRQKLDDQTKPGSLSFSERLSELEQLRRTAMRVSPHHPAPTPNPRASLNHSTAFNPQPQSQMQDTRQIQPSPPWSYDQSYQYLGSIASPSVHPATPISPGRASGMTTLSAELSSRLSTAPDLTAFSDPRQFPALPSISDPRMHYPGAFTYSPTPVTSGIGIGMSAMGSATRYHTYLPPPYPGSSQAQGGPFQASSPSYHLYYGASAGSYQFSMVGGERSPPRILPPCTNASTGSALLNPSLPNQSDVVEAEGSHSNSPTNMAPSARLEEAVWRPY
T1 sequence (Q13951 whole entry, the tested form may be a part): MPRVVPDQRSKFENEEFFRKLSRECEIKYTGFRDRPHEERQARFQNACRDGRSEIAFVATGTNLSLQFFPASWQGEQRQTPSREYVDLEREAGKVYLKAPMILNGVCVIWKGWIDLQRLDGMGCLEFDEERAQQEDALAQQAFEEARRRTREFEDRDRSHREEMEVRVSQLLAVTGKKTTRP

[2] = molecular target: T1, Runt-related transcription factor 1/Core-binding factor subunit beta; test: inhibitors of RUNX1 Runt–CBFb-SMMHC binding, biochemical, TR-FRET (AID 1438); type: protein assay
[3] = molecular target: T2, E3 ubiquitin-protein ligase XIAP (Homo sapiens, UniProt P98170); test: Counter Screen using XIAP-Bir3 for Chemical Antagonists of Bir1/2 domains of IAP-family anti-apoptotic proteins. [Related pubchem assays (depositor defined):AID1018, AID1449, AID1514, AID1638, AID1749, AID1750, AID488957, AID488963]
T2 sequence (P98170 whole entry): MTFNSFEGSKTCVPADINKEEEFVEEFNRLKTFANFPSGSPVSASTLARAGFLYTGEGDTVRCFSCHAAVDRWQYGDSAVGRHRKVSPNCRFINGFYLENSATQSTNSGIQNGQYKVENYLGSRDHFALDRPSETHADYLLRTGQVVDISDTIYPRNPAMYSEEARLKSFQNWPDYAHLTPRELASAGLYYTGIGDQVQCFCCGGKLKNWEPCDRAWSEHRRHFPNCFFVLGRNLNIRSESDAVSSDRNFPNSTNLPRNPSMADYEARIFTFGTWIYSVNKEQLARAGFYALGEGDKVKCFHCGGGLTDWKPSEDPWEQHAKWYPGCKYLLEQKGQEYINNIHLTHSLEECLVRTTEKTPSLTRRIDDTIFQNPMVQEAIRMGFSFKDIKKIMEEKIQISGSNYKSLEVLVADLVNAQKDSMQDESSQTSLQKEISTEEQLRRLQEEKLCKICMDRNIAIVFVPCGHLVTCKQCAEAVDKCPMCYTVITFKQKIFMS

[4] = molecular target: T2, E3 ubiquitin-protein ligase XIAP; test: XIAP antagonists, biochemical, IAP family, fluorescence polarization (AID 1018); type: functional
CAAX prenyl protease 2 = molecular target: T3, CAAX prenyl protease 2 (Saccharomyces cerevisiae S288c, UniProt Q03530); type: biochemical
T3 sequence (Q03530 whole entry): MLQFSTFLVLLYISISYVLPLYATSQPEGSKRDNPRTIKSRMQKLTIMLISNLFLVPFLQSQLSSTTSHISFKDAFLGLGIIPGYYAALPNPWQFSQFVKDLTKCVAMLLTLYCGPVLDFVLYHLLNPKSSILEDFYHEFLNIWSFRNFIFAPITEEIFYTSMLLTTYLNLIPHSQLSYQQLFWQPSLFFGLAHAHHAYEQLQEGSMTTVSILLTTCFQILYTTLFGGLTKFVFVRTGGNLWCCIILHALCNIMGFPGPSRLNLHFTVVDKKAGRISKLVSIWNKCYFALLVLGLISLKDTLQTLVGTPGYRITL

[5] = mammalian cell cytotoxicity, dose response, cytotoxicity control, plate reader, cherry-pick samples (AID 504397); type: functional, cell-based
[6] = molecular target: Peroxisome proliferator-activated receptor gamma/Nuclear receptor coactivator 1 (Homo sapiens, UniProt P37231); test: (§1) TR-FRET dose response biochemical High Throughput Screening assay for agonists of the steroid receptor coactivator 1 (SRC-1) recruitment by the peroxisome proliferator-activated receptor gamma (PPAR gamma): non-selective agonists. [Related pubchem assays (depositor defined):AID1300, AID1808, AID504735, AID631]; type: protein assay
Chain of Peroxisome proliferator-activated receptor gamma/Nuclear receptor coactivator 1 (P37231 whole entry): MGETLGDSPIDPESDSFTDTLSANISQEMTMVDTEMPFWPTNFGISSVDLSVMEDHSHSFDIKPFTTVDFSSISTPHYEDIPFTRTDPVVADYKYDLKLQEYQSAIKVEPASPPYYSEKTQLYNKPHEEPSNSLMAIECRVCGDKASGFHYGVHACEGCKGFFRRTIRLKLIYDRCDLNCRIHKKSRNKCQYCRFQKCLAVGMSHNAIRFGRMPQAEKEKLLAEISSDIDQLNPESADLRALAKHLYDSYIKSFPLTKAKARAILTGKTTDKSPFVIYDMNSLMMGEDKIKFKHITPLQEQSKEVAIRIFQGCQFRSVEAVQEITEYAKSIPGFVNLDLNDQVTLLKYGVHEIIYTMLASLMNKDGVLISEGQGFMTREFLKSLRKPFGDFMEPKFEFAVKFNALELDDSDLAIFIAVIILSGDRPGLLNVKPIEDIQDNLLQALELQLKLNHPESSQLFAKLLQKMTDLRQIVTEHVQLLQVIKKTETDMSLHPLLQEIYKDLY
Chain of Peroxisome proliferator-activated receptor gamma/Nuclear receptor coactivator 1 (Q15788 whole entry, further chain): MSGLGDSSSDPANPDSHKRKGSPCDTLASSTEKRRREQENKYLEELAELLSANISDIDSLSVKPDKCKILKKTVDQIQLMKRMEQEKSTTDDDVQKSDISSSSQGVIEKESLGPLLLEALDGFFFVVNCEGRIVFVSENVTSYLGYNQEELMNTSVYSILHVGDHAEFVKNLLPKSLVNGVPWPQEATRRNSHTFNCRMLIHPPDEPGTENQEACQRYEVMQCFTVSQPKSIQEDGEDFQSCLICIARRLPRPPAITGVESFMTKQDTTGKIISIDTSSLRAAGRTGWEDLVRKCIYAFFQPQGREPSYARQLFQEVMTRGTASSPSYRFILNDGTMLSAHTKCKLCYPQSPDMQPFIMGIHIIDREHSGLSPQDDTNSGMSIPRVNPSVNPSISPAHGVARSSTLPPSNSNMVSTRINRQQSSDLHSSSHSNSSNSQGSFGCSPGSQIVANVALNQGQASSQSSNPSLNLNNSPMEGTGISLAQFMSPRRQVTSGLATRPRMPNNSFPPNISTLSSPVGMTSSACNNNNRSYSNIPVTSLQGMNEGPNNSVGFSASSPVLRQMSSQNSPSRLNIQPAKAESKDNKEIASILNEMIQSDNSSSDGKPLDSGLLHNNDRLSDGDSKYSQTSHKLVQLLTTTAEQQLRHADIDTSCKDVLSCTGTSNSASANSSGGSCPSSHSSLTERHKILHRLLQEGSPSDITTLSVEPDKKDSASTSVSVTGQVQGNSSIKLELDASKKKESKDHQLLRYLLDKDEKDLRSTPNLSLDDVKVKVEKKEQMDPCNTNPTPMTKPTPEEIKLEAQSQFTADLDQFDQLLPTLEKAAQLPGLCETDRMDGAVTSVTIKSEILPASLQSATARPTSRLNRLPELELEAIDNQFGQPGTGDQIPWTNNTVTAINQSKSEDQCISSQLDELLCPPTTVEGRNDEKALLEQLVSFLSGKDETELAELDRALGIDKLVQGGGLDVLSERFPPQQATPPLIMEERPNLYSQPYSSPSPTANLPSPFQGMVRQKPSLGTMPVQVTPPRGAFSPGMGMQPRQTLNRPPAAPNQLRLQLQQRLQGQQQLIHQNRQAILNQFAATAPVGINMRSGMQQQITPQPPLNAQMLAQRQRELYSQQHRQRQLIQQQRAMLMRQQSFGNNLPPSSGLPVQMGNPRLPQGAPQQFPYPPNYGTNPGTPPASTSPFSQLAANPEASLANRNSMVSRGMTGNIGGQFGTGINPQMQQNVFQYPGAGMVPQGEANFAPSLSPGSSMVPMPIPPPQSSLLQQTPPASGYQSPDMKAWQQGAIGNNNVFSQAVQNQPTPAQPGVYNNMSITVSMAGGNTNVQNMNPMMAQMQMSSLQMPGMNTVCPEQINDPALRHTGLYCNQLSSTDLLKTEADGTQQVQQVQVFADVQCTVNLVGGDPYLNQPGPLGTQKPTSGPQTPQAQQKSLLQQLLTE

[7] = molecular target: Peroxisome proliferator-activated receptor gamma/Nuclear receptor coactivator 3 (Homo sapiens, UniProt P37231); test: as §1, with “3 (SRC-3)” for “1 (SRC-1)”, “assays: 1301 (Confirmation screen.), 1048 (Primary screen.)]” for “assays (depositor defined):AID1300, AID1808, AID504735, AID631]”; type: functional
[8] = molecular target: Peroxisome proliferator-activated receptor gamma/Nuclear receptor coactivator 2 (Homo sapiens, UniProt P37231); test: TR-FRET dose response biochemical High Throughput Screening assay for agonists of the steroid receptor coactivator 2 (SRC-2) recruitment by the peroxisome proliferator-activated receptor gamma (PPAR gamma): non-selective agonists. [Related pubchem assays: 1297, 1032 ]; type: functional
Chain of Peroxisome proliferator-activated receptor gamma/Nuclear receptor coactivator 2 (P37231 whole entry): as the sequence (P37231 whole entry) above
Chain of Peroxisome proliferator-activated receptor gamma/Nuclear receptor coactivator 2 (Q15596 whole entry, further chain): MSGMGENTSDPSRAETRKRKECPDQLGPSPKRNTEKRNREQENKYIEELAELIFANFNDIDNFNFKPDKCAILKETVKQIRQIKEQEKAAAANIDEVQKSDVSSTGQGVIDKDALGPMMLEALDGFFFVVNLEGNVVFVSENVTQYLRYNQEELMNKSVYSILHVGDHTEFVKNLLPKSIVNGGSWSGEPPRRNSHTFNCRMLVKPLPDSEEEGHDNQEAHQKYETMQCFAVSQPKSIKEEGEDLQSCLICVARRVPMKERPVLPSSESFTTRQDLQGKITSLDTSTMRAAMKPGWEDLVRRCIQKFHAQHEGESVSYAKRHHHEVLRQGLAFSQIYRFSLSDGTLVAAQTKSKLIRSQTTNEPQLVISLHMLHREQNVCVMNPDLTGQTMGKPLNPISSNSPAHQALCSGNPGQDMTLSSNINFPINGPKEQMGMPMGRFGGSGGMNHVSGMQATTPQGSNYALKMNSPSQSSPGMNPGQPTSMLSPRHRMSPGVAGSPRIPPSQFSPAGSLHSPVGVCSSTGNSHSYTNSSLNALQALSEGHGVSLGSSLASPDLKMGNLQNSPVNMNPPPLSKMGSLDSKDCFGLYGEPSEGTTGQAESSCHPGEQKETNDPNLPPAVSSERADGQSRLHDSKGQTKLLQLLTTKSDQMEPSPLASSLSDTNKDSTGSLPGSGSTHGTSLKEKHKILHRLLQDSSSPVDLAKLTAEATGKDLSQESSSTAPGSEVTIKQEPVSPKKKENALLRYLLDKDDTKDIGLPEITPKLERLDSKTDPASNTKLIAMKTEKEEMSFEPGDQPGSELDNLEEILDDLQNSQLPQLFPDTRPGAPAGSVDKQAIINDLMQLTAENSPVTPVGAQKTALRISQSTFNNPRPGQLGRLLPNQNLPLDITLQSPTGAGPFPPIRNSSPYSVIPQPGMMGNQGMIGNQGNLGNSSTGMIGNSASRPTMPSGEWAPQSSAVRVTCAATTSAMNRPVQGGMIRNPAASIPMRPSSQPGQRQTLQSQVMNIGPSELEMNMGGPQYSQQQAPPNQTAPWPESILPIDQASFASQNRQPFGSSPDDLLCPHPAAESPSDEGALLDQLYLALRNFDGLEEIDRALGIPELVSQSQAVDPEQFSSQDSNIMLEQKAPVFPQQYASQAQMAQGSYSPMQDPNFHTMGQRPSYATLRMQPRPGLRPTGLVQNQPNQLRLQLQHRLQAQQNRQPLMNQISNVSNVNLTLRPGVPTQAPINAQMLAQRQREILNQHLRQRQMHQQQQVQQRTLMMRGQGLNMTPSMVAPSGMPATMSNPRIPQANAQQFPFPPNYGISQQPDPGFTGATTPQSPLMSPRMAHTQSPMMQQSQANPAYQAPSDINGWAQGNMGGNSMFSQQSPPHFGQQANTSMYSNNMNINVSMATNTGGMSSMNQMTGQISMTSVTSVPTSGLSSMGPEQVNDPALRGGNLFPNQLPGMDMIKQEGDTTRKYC

For N=c1c(C(=O)NCc2ccc(F)cc2)cc2c(=O)n3ccccc3nc2n1Cc1ccco1, the IC50 [1] was 3.78 µM (active) and the IC50 [2] was 43.5 µM (active).

In the case of CC(C)CNS(=O)(=O)c1ccc(CCC(=O)N2CCN(Cc3ccccc3)CC2)cc1, the IC50 [3] is reported as > 100 µM (inactive) and the IC50 [4] is reported as > 100 µM (not active).

In the case of O=C(Nc1ccc(N2CCOCC2)c(Cl)c1)c1cc2ccccc2o1, the AC50 (CAAX prenyl protease 2) is reported as 3.46 µM (active) and the AC50 [5] is reported as 260 µM (active).

With c1cc2c(cnc3cscc32)s1 the EC50 [6] was 8.78 µM (active), the EC50 [7] was 69.3 µM (not active) and the EC50 [8] was 12 µM (not active).
